In one assay the test system is LAD2 cells. Kind of assay: LAD2 cells assay (degranulation, β-hexosaminidase release). Conditions: Homo sapiens. It is filed as cell-based. The source says: LAD2 is a human mast cell line depending on stem cell factor for its survival, maturation and differentiation. This mast cell line was established by the NIH from bone marrow aspirates from a patient with mast cell sarcoma. LAD2 cells resemble CD34+ - derived human mast cells as they have granules containing tryptase, histamine and β-hexosaminidase. They also express c-kit and FcεRI (Kirshenbaum, et al., Leukemia Research 27: 677-682, 2003).
Sensitization of LAD2 cells
Cells were sensitized (0.2x10^6 cells/ml) in its normal growth factor (Complete StemPro-34 SFM, Gibco 10639-011 containing StemPro-34 nutrient supplement (1/40); glutamine (2 mM) and supplemented with 100 ng/ml SCF) by adding 100 ng/ml of biotin-labeled IgE (USBiological) overnight (16-18 h, 37º, 5% CO2) in a humidified atmosphere (90%).
Compounds were prepared from a 10^-2M stock in 100% DMSO to give seven successive 1/3 dilutions in DMSO. From each concentration, 2 further 1/10 dilutions were prepared in release buffer (137 mM NaCl, 2.70 mM KCI, 0.4 mM NaH2PO4, 5.6 mM (D)-glucose, 1.8 mM CaCl2, 1.3 mM MgSO4, 0.025% BSA). Finally, 5 µl from each diluted concentration were transferred into the assay plate (flat 96-well Nunc). The final compound concentrations tested ranged from 1x10^-5M to […] with a final proportion of DMSO in the assay of 0.1 %. Control wells were treated with 0.1 % DMSO.
Sensitized LAD2 cells were centrifuged (300 g, 3 min, R.T.) and washed 2 times with release buffer. Cells were resuspended in release buffer and adjusted to a density of 0.2x10^6/ml. 45 µl of the adjusted cells were transfered to the assay plate (∼10,000cells/well) containg 5 µl of the final compound concentrations. LAD2 cells were incubated with the compound for 30 min (37 °C, 5% CO2 90% of humidity) and then activated with 125 ng/ml of streptavidin (Pierce 21125) for 30 min (37 °C, 5% CO2, 90% of humidity). After the activation, cells were centrifuged at 1200 g, 10 min, 12 °C and supernatats were removed and transfered to another well for determination of released β-hexosaminidase. Empty wells were filled with 50 µl of release buffer for determination of intracellular β-hexosaminidase. Cells were lysed with 2 cycles of freeze-thaw.
Cells were incubated for 90 minutes, 37 °C with 1 mM β-hexosaminidase substrate (p-nitrophenyl N-acetyl-D-glucosamide, in citric buffer, pH 4.5). Reaction was stopped with 0.4 M glycine solution (pH 10.0) and the plate is read immediately at 405 nm.

Assay [1] addresses T1, Recombinant human full-length Syk (Homo sapiens, UniProt P43405).
T1 construct: Recombinant human full-length Syk was supplied by Millipore; purchased Millipore
Kind of assay: Syk enzyme assay - radioactive filtration kinase assay. It is filed as biochemical. On the procedure: Syk Enzyme assay- Radioactive filtration kinase assay
Recombinant human full-length Syk was supplied by Millipore. The activity of Syk kinase was assessed using a radioactive filtration kinase assay. […] The reaction was initiated by the addition of 14.5 µl of 0.36 µCi [γ-^33P] ATP (10 mCi/ml, PerkinElmer). This was prepared in a half-area NBS plate (Corning) and allowed to stand at room temperature for 40 min. 15 µl of reaction mixture was transferred to a filter plate (Millipore) previously pre-wetted with a solution of 75 mM phosphoric acid. The reaction was terminated with the addition of 200 µl phosphoric acid. The filter plate was washed three times under vacuum on a vacuum manifold (Millipore cat# MSVMHTS00) at 8" Hg vacuum level with 200 µl phosphoric acid per wash. 30 µl Optiphase™ Supermix (PerkinElmer) was added to each test well and allowed to incubate for at least 1 h before counting. Radioactivity counting was performed in a Wallac MicroBeta®, and the tyrosine phosphorylation activity by Syk was calculated.

Where [2] appears, read: 0.5 h, IgE-sensitized LAD2 cells, 30 min with compound, activated with 125 ng/ml streptavidin, released β-hexosaminidase, read-out: LAD2IC50.
[3] abbreviates: Syk 1nM final, poly-GT 100 µg/ml, [γ-33P] ATP, 40 min at room temperature, read-out: Syk IC50.

Where two headings read alike, the source gives them in different places.

The values that follow come from patent publication EP2441755A1 (Almirall, S.A., priority 2010, dated 2012).

As for `Cc1ccnc(Nc2cccc(-c3ccnc(N4CCNCC4)c3)n2)c1` [Example 14, N-(4-Methylpyridin-2-yl)-2'-piperazin-1-yl-2,4'-bipyridin-6-amine], the results for the IC50 (in the assay on LAD2 cells (setting [2]); in assay [1]) were 70 nM and 14 nM, respectively.

Turning to `NCCc1cccc(-c2cccc(Nc3cc(C(F)(F)F)ccn3)n2)c1` [Example 20, N-{6-[3-(2-Aminoethyl)phenyl]pyridin-2-yl}-4-(trifluoromethyl)pyridin-2-amine], the IC50 in the assay on LAD2 cells (setting [2]) is 186 nM; in assay [1] (setting [3]), 8 nM.

In the case of `FC(F)(F)c1ccnc(Nc2cccc(-c3cccc(C4CCNCC4)c3)n2)c1` [Example 22, N-[6-(3-Piperidin-4-ylphenyl)pyridin-2-yl]-4-(trifluoromethyl)pyridin-2-amine], the IC50 amounted to 368 nM with LAD2 cells (setting [2]) and 1.18 nM in assay [1] (setting [3]).

In the case of `FC(F)(F)c1ccnc(Nc2cccc(-c3cccc(N4CCNCC4)c3)n2)c1` [Example 23, N-[6-(3-Piperazin-1-ylphenyl)pyridin-2-yl]-4-(trifluoromethyl)pyridin-2-amine], the figures for the IC50 (with LAD2 cells (setting [2]); in assay [1]) were 331 nM and 0.56 nM, respectively.

Turning to `FC(F)(F)c1ccnc(Nc2cccc(-c3ccnc(N4CCNCC4)c3)n2)c1` [Example 26, 2'-Piperazin-1-y)-N-[4-(trifluoromethy))pyridin-2-y)]-2,4'-bipyridin-6-amine], the IC50 with LAD2 cells (setting [2]) came out at 206 nM; in assay [1], 1.8 nM.

Regarding `C1=C(c2cccc(-c3cccc(Nc4cnccn4)n3)c2)CCNC1` [Example 29, N-{6-[3-(1,2,3,6-Tetrahydropyridin-4-y))pheny)]pyridin-2-y)}pyrazin-2-amine], the IC50 turned out to be 183 nM with LAD2 cells (setting [2]) and 20 nM in assay [1] (setting [3]).

With `Cc1ccnc(Nc2cc3ccccc3c(-c3ccnc(N4CCNCC4)c3)n2)c1` [Example 52, N-(4-Methylpyridin-2-yl)-1-(2-piperazin-1-ylpyridin-4-yl)isoquinolin-3-amine], the IC50 worked out at 434 nM with LAD2 cells (setting [2]) and 18 nM in assay [1] (setting [3]).

For the compound `O=C(Nc1cc(Nc2cnccn2)nc(-c2ccnc(N3CCNCC3)c2)c1)c1cccc(C(F)(F)F)c1` [Example 76, N-[2'-Piperazin-1-yl-6-(pyrazin-2-ylamino)-2,4'-bipyridin-4-yl]-3-(trifluoromethyl) benzamide], the IC50 with LAD2 cells (setting [2]) came out at 310 nM; in assay [1] (setting [3]), 7 nM.

Consider `O=C(Nc1cc(Nc2cnccn2)nc(-c2ccnc(N3CCNCC3)c2)c1)c1ccc2c(c1)OCO2` [Example 77, N-[2'-Piperazin-1-yl-6-(pyrazin-2-ylamino)-2,4' -bipyridin-4-yl]-1,3-benzodioxole-5-Carboxamide], for which the figures for the IC50 (with LAD2 cells (setting [2]); in assay [1] (setting [3])) were 230 nM and 9 nM, respectively.

In the case of `COc1ccc(C(=O)Nc2cc(Nc3cnccn3)nc(-c3ccnc(N4CCNCC4)c3)c2)cc1` [Example 81, 4-Methoxy-N-[2'-piperazin-1-yl-6-(pyrazin-2-ylamino)-2,4'-bipyridin-4-yl]benzamide], the IC50 is 430 nM in the assay on LAD2 cells (setting [2]) and 12 nM in assay [1] (setting [3]).

Turning to `O=C(CCc1ccccc1)Nc1cc(Nc2cnccn2)nc(-c2ccnc(N3CCNCC3)c2)c1` [Example 82, 3-Phenyl-N-[2'-piperazin-1-yl-6-(pyrazin-2-ylamino)-2,4'-bipyridin-4-yl]propanamide], the IC50 is 280 nM in the assay on LAD2 cells (setting [2]) and 8 nM in assay [1] (setting [3]).

On to `Cc1cc(C(=O)Nc2cc(Nc3cnccn3)nc(-c3ccnc(N4CCNCC4)c3)c2)n(C)n1` [Example 83, 1,3-Dimethyl-N-[2'-piperazin-1-yl-6-(pyrazin-2-ylamino)-2,4'-bipyridin-4-yl]-1H-pyrazole-5-Carboxamide], for which the IC50 came out at 170 nM with LAD2 cells (setting [2]) and 7 nM in assay [1].

On to `COC(=O)c1cccc(C(=O)Nc2cc(Nc3cnccn3)nc(-c3ccnc(N4CCNCC4)c3)c2)c1` [Example 87, Methyl 3-({[2'-piperazin-1-yl-6-(pyrazin-2-ylamino)-2,4'-bipyridin-4-yl]amino}carbonyl)benzoate], for which the IC50 with LAD2 cells (setting [2]) turned out to be 330 nM; in assay [1] (setting [3]), 6 nM.

For the compound `O=C(Cc1cccnc1)Nc1cc(Nc2cnccn2)nc(-c2ccnc(N3CCNCC3)c2)c1` [Example 89, N-[2'-Piperazin-1-yl-6-(pyrazin-2-ylamino)-2,4'-bipyridin-4-yl]-2-pyridin-3-ylacetamide], the figures for the IC50 (in the assay on LAD2 cells (setting [2]); in assay [1]) were 350 nM and 4 nM, respectively.

For `O=C(Nc1cc(Nc2cnccn2)nc(-c2ccnc(N3CCNCC3)c2)c1)c1cncnc1` [Example 95, N-[2'-Piperazin-1-yl-6-(pyrazin-2-ylamino)-2,4'-bipyridin-4-yl]pyrimidine-5-Carboxamide], the IC50 with LAD2 cells (setting [2]) was 320 nM; in assay [1] it was 9 nM.

For `O=C(Nc1cc(Nc2cnccn2)nc(-c2ccnc(N3CCNCC3)c2)c1)c1ccc(C(=O)O)nc1` [Example 96, 5-({[2'-Piperazin-1-yl-6-(pyrazin-2-ylamino)-2,4'-bipyridin-4-yl]amino}carbonyl) pyridine-2-Carboxylic acid], the IC50 worked out at 200 nM with LAD2 cells (setting [2]) and 10 nM in assay [1].

For `O=C(C[C@H](Cc1ccccc1)C(=O)O)Nc1cc(Nc2cnccn2)nc(-c2ccnc(N3CCNCC3)c2)c1` [Example 98, (2S)-2-Benzyl-4-oxo-4-{[2'-piperazin-1-yl-6-(pyrazin-2-ylamino)-2,4'-bipyridin-4-yl]amino}butanoic acid], the IC50 came out at 82 nM with LAD2 cells (setting [2]) and 16 nM in assay [1] (setting [3]).

As to `CC(=O)Nc1cc(Nc2cnccn2)nc(-c2ccnc(N3CCNCC3)c2)c1` [Example 101, N-[2'-Piperazin-1-yl-6-(pyrazin-2-ylamino)-2,4'-bipyridin-4-yl]acetamide], the IC50 in the assay with LAD2 cells (setting [2]) came out at 117 nM; in assay [1] (setting [3]), 8 nM.

Take `O=C(O)C[C@H](Cc1ccccc1)NC(=O)c1cccc(C(=O)Nc2cc(Nc3cnccn3)nc(-c3ccnc(N4CCNCC4)c3)c2)c1` [Example 109, (3S)-4-Phenyl-3-{[3-({[2'-piperazin-1-yl-6-(pyrazin-2-ylamino)-2,4'-bipyridin-4-yl]amino}carbonyl)benzoyl]amino}butanoic acid]: the IC50 in the assay with LAD2 cells (setting [2]) turned out to be 100 nM; in assay [1] (setting [3]), 13 nM.

With `Nc1cc(Nc2cnccn2)nc(-c2ccnc(N3CCNCC3)c2)c1` [Example 127, 2'-Piperazin-1-yl-N^6-pyrazin-2-yl-2,4'-bipyridine-4,6-diamine], the IC50 with LAD2 cells (setting [2]) amounted to 118 nM; in assay [1] it was 4 nM.

Take `CNc1cc(Nc2cnccn2)nc(-c2ccnc(N3CCNCC3)c2)c1` [Example 128, N^4-Methyl-2'-(piperazin-1-yl)-N^6-(pyrazin-2-yl)-2,4'-bipyridine-4,6-diamine]: the values for the IC50 (in the assay on LAD2 cells (setting [2]); in assay [1]) were 190 nM and 4.1 nM, respectively.

On to `OC1CCN(c2cc(Nc3cnccn3)nc(-c3ccnc(N4CCNCC4)c3)c2)CC1` [Example 130, 1-(2'-(Piperazin-1-yl)-6-(pyrazin-2-ylamino)-2,4'-bipyridin-4-yl)piperidin-4-ol], for which the IC50 in the assay with LAD2 cells (setting [2]) amounted to 400 nM; in assay [1] (setting [3]) it was 8.2 nM.

On to `Nc1cc(Nc2cnccn2)nc(-c2cncc(N3CCNCC3)c2)c1` [Example 138], for which the IC50 in the assay on LAD2 cells (LAD2, 0.5 h, read-out: LAD2IC50(nM)) stood at 150 nM; in assay [1] (read-out: Syk IC50, Syk 1nM final, poly-GT 100 µg/ml, [γ-33P] ATP, 40 min at room temperature) it was 2.5 nM.
